# “And” between values parts separate entries of the source, which are not always exact repeats. Identical values can stand only once.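 Tested at 5 concentrations; 48 h exposure; 96-well plates; endpoints linearly interpolated, else capped at highest concentration. GI50 = concentration required for 50% inhibition of growth. TGI is the concentration that stops growth completely.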
# Columns and labels:
# Experiment in all cases: NCI anticancer screen, dose series, 48 h
# [1] = tested on: CCRF-CEM leukemia
# [2] = tested on: COLO 205 colon
# [3] = tested on: HT29 colon
# [4] = tested on: KM12 colon
# [5] = tested on: LOX IMVI melanoma
# [6] = tested on: NCI-H23 lung
# [7] = tested on: OVCAR-3 ovarian
# [8] = tested on: OVCAR-4 ovarian
# [9] = tested on: RPMI-8226 leukemia
# [10] = tested on: SNB-19 CNS
SMILES,GI50 [1] [µM],TGI [1],GI50 [2] [µM],TGI [2],GI50 [3],TGI [3],GI50 [4],TGI [4],GI50 [5],TGI [5],GI50 [6] [µM],TGI [6],GI50 [7] [µM],TGI [7],GI50 [8],TGI [8],GI50 [9],TGI [9],GI50 [10] [µM],TGI [10]
C=CC12CCN(CC1)C(C(O)c1ccnc3ccc(OC)cc13)C2 (centres undefined),> 100,> 100 µM,94.8,> 100 µM,61.9 µM,> 100 µM,> 100 µM,> 100 µM,15.4 µM,> 100 µM,> 100,> 100 µM,> 100,> 100 µM,> 100 µM,> 100 µM,> 100 µM,> 100 µM,> 100,> 100 µM
NC(=O)c1cc(I)ccc1NC(=O)/C=C/c1ccccc1,0.36,–,0.318,1.24 µM,0.374 µM,> 31.8 µM,0.41 µM,> 37.4 µM,3.18 µM,> 100 µM,1,> 44.9 µM,0.32,1.01 µM,1.84 µM,30.5 µM,0.357 µM,4.96 µM,0.645,13.7 µM
COc1ccc2c(=O)oc3c(OC)cc(CCN(C)C)c4c(=O)oc1c2c34,–,3.5 µM and 3.06 µM,–,17.4 µM and 22.1 µM,13.7 µM and 5.51 µM,27 µM and 12.6 µM,18 µM and 6.41 µM,36 µM and 13.4 µM,17 µM and 7.81 µM,31.3 µM and 18 µM,–,32.7 µM and 17.5 µM,–,30 µM and 19.8 µM,3.47 µM and 8.43 µM,12.3 µM and 16.1 µM,18.1 µM and 8.54 µM,41.3 µM and 19.8 µM,–,29.2 µM and 21.4 µM
CN(C)CCNC(=O)Cc1ccccc1Nc1c(Cl)cccc1Cl,–,34 µM,–,30.6 µM,–,23.5 µM,–,35.7 µM,–,26.8 µM,–,33.4 µM,–,36.1 µM,–,50.6 µM,–,38.2 µM,–,31.9 µM
CCOC(=O)c1c(C)c2c(n1Cc1ccccc1)CSCC2=O,29.9,> 100 µM,20.3,48.8 µM,18.7 µM,> 100 µM,15 µM,37.9 µM,14.8 µM,50.9 µM,17.2,63.8 µM,17.5,46.2 µM,17.4 µM,> 100 µM,14.4 µM,> 100 µM,14.2,> 100 µM
CO[C@@H]1CC[C@]2(C)OC[C@H](C)[C@@H]3C[C@@H](C)[C@@H](OC(C)=O)[C@@H]4[C@H]3[C@@H]2O[C@H]4C[C@@]1(C)O,> 100,> 100 µM,> 100,> 100 µM,> 100 µM,> 100 µM,> 100 µM,> 100 µM,> 100 µM,> 100 µM,> 100,> 100 µM,78.1,> 100 µM,> 100 µM,> 100 µM,> 100 µM,> 100 µM,> 100,> 100 µM
O=C1c2cccc3cccc(c23)C(=O)N1CCN(CCO)CCO,–,> 100 µM,–,30.2 µM,–,76.1 µM,–,> 100 µM,–,34.5 µM,–,74.8 µM,–,> 100 µM,–,66 µM,–,56.4 µM,–,> 100 µM
